pIC50: −log10 of the molar value. Where only a bound is given, the exact number is not on record here.

The test deals with T1, DNA-PK phosphorylation at Serine 2056 (Homo sapiens, UniProt P78527).
T1 construct: FaDu cells were purchased from ATCC; host or cells: FaDu
Put plainly: Cellular Assay for Inhibition of DNA-PK Phosphorylation at Serine 2056 in FaDu cells (sandwich ELISA, neocarzinostatin). The note with it: pSer2056 DNA-PK, Table 3. Format: cell-based. As for the experimental part:
FaDu cells were purchased from ATCC and maintained in MEM alpha medium (Life Technologies, cat. no. 12561) supplemented with 10% fetal bovine serum, and 1% GlutaMAX at 37° C. supplemented with 5% CO2. 50,000 cells were seeded to each well of a 96-well cell culture plate in 50 μL of culture medium and incubated for 16-24 hours. Three-fold serially diluted compounds were prepared in DMSO. Culture media was used to prepare compound treatments to 0.3% DMSO (dimethyl sulphoxide) content. Compound treatments were added to the cells for 1 hour prior incubation, followed by the addition of neocarzinostatin in fresh culture medium to 1 μg/mL final concentration for an additional 2 hours incubation to induce DNA DSBs (double-strand breaks). DMSO controls were incubated with fresh culture medium alone for the additional two hours incubation. The cells were then lysed and frozen at −20° C. Cell lysates were thawed on wet ice and protein concentrations quantified by BCA Protein Assay (Thermo #23225). Lysis buffer was used to normalize lysates by protein content and all lysates were then investigated by sandwich ELISA by means of DNA-PK-specific antibodies (Abcam ab44815: total DNA-PK; ab124918: phosphoserine-2056 DNA-PK) in sandwich ELISA format on the MSD S600MM platform (MesoScale Discovery). % inhibition was calculated for all data points: =1−(DATA_PT−AVERAGE(DMSO controls))/(AVERAGE(NCS controls)−AVERAGE(DMSO controls)). Logarithm of the molar concentration of compound was plotted against percent inhibition to calculate IC50 values, with curve fit settings for data fit to log(inhibitor) vs. normalized response—Variable slope using curve fit software (GraphPad Prism).
The pIC50 is the IC50 on a negative log10 scale, so that one unit is a factor of ten. A high value points to a low IC50. `CN1CCN(c2ccc(N[C@H]3CC[C@@H](Oc4nc(N5CCOCC5)cc5ncc(NS(C)(=O)=O)cc45)CC3)nc2)CC1` [LFA2001, N-[5-[4-[[5-(4-methylpiperazin-1-yl)-2-pyridyl]amino]cyclohexoxy]-7-morpholino-1,6-naphthyridin-3-yl]methanesulfonamide]: the pIC50 was over 7.00.
With `CS(=O)(=O)Nc1cnc2cc(N3CCOCC3)nc(O[C@H]3CC[C@@H](Nc4cc5c(cn4)CNCC5)CC3)c2c1` [LFA2002, N-[7-morpholino-5-[4-(5,6,7,8-tetrahydro-2,7-naphthyridin-3-ylamino)cyclohexoxy]-1,6-naphthyridin-3-yl]methanesulfonamide] the figure was 6.00 to 7.00; with `CS(=O)(=O)Nc1cnc2cc(N3CCOCC3)nc(O[C@H]3CC[C@@H](Nc4ccc5c(n4)CCNC5)CC3)c2c1` [LFA2003, N-[7-morpholino-5-[4-(5,6,7,8-tetrahydro-1,6-naphthyridin-2-ylamino)cyclohexoxy]-1,6-naphthyridin-3-yl]methanesulfonamide], 6.00 to 7.00; with `CS(=O)(=O)Nc1cnc2cc(N3CCOCC3)nc(O[C@H]3CC[C@@H](Nc4ncc5c(n4)CNCC5)CC3)c2c1` [LFA2004, N-[7-morpholino-5-[4-(5,6,7,8-tetrahydropyrido[3,4-d]pyrimidin-2-ylamino)cyclohexoxy]-1,6-naphthyridin-3-yl]methanesulfonamide], 6.00 to 7.00.
Under `CS(=O)(=O)Nc1cnc2cc(N3CCOCC3)nc(O[C@H]3CC[C@@H](Nc4ncc5c(n4)CCNC5)CC3)c2c1` [LFA2005, N-[7-morpholino-5-[4-(5,6,7,8-tetrahydropyrido[4,3-d]pyrimidin-2-ylamino)cyclohexoxy]-1,6-naphthyridin-3-yl]methanesulfonamide] stands 6.00 to 7.00; under `CN1CCC(Oc2ccc(N[C@H]3CC[C@@H](Oc4nc(N5CCOCC5)cc5ncc(NS(C)(=O)=O)cc45)CC3)nc2)C1` (some centres unmarked) [LFA2006, N-[5-[4-[[5-(1-methylpyrrolidin-3-yl)oxy-2-pyridyl]amino]cyclohexoxy]-7-morpholino-1,6-naphthyridin-3-yl]methanesulfonamide], over 7.00.
`CN1CCc2nc(NC3CCC(Oc4nc(N5CCOCC5)cc5ncc(NS(C)(=O)=O)cc45)CC3)ncc2C1` (centres unmarked) [LFA2007, N-[5-[4-[(6-methyl-7,8-dihydro-5H-pyrido[4,3-d]pyrimidin-2-yl)amino]cyclohexoxy]-7-morpholino-1,6-naphthyridin-3-yl]methanesulfonamide] had a pIC50 of over 7.00.
Under `CN1CCc2nc(N[C@H]3CC[C@@H](Oc4nc(N5CCOCC5)cc5ncc(NS(C)(=O)=O)cc45)CC3)ccc2C1` [LFA2008, N-[5-[4-[(6-methyl-7,8-dihydro-5H-1,6-naphthyridin-2-yl)amino]cyclohexoxy]-7-morpholino-1,6-naphthyridin-3-yl]methanesulfonamide] stands over 7.00.
As to `Oc1cnc2cc(N3CCOCC3)nc(O[C@H]3CC[C@@H](Nc4ncc(N5CCN(CC(F)F)CC5)cn4)CC3)c2c1` [LFA2012], the pIC50 was over 7.00.
With `CS(=O)(=O)Nc1cnc2cc(N3CCOCC3)nc(O[C@H]3CC[C@@H](Nc4ncc(N5CCN(CCF)CC5)cn4)CC3)c2c1` [LFA2013] the figure was over 7.00.
With `CS(=O)(=O)Nc1cnc2cc(N3CCOCC3)nc(O[C@H]3CC[C@@H](Nc4ncc(N5CCNCC5)cn4)CC3)c2c1` [LFA2014, N-[7-morpholino-5-[4-[(5-piperazin-1-ylpyrimidin-2-yl)amino]cyclohexoxy]-1,6-naphthyridin-3-yl]methanesulfonamide] the figure was 6.00 to 7.00; with `CS(=O)(=O)Nc1cnc2cc(N3CCOCC3)nc(O[C@H]3CC[C@@H](Nc4ncc(N5CC6CNCC6C5)cn4)CC3)c2c1` (some centres unmarked) [LFA2015, N-[5-[4-[[5-(2,3,3a,4,6,6a-hexahydro-1H-pyrrolo[3,4-c]pyrrol-5-yl)pyrimidin-2-yl]amino]cyclohexoxy]-7-morpholino-1,6-naphthyridin-3-yl]methanesulfonamide], 6.00 to 7.00.
Under `CS(=O)(=O)Nc1cnc2cc(N3CCOCC3)nc(O[C@H]3CC[C@@H](Nc4ncc(N5CC6CCC(C5)N6)cn4)CC3)c2c1` [LFA2016, N-[5-[4-[[5-(3,8-diazabicyclo[3.2.1]octan-3-yl)pyrimidin-2-yl]amino]cyclohexoxy]-7-morpholino-1,6-naphthyridin-3-yl]methanesulfonamide] stands 6.00 to 7.00; under `CS(=O)(=O)Nc1cnc2cc(N3CCOCC3)nc(O[C@H]3CC[C@@H](Nc4ncc(N5CCN(CC(F)(F)F)CC5)cn4)CC3)c2c1` [LFA2017, N-[7-morpholino-5-[4-[[5-[4-(2,2,2-trifluoroethyl)piperazin-1-yl]pyrimidin-2-yl]amino]cyclohexoxy]-1,6-naphthyridin-3-yl]methanesulfonamide], over 7.00.
`CS(=O)(=O)Nc1cnc2cc(N3CCOCC3)nc(O[C@H]3CC[C@@H](Nc4ncc(N5CCN(CC(F)F)CC5)cn4)CC3)c2c1` [LFA2018, N-[5-[4-[[5-[4-(2,2-difluoroethyl)piperazin-1-yl]pyrimidin-2-yl]amino]cyclohexoxy]-7-morpholino-1,6-naphthyridin-3-yl]methanesulfonamide] had a negative-log IC50 (pIC50) of over 7.00.
With `CS(=O)(=O)Nc1cnc2cc(N3CCOCC3)nc(O[C@H]3CC[C@@H](Nc4ncc(N5CCN(C6COC6)CC5)cn4)CC3)c2c1` [LFA2019, N-[7-morpholino-5-[4-[[5-[4-(oxetan-3-yl)piperazin-1-yl]pyrimidin-2-yl]amino]cyclohexoxy]-1,6-naphthyridin-3-yl]methanesulfonamide] the figure was over 7.00; with `CS(=O)(=O)Nc1cnc2cc(N3CCOCC3)nc(O[C@H]3CC[C@@H](Nc4ncc(CN5CCOCC5)cn4)CC3)c2c1` [LFA2020, N-[7-morpholino-5-[4-[[5-(morpholinomethyl)pyrimidin-2-yl]amino]cyclohexoxy]-1,6-naphthyridin-3-yl]methanesulfonamide], over 7.00; with `CS(=O)(=O)Nc1cnc2cc(N3CCOCC3)nc(O[C@H]3CC[C@@H](Nc4ncc(C5=CCNCC5)cn4)CC3)c2c1` [LFA2021, N-[7-morpholino-5-[4-[[5-(1,2,3,6-tetrahydropyridin-4-yl)pyrimidin-2-yl]amino]cyclohexoxy]-1,6-naphthyridin-3-yl]methanesulfonamide], 6.00 to 7.00.
Under `CS(=O)(=O)Nc1cnc2cc(N3CCOCC3)nc(O[C@H]3CC[C@@H](Nc4ncc(OCCN5CCNCC5)cn4)CC3)c2c1` [LFA2022, N-[7-morpholino-5-[4-[[5-(2-piperazin-1-ylethoxy)pyrimidin-2-yl]amino]cyclohexoxy]-1,6-naphthyridin-3-yl]methanesulfonamide] stands over 7.00; under `CS(=O)(=O)Nc1cnc2cc(N3CCOCC3)nc(O[C@H]3CC[C@@H](Nc4ncc(OCCN5CCOCC5)cn4)CC3)c2c1` [LFA2023, N-[7-morpholino-5-[4-[[5-(2-morpholinoethoxy)pyrimidin-2-yl]amino]cyclohexoxy]-1,6-naphthyridin-3-yl]methanesulfonamide], over 7.00.
With `CN(C)CCOc1cnc(N[C@H]2CC[C@@H](Oc3nc(N4CCOCC4)cc4ncc(NS(C)(=O)=O)cc34)CC2)nc1` [LFA2024, N-[5-[4-[[5-[2-(dimethylamino)ethoxy]pyrimidin-2-yl]amino]cyclohexoxy]-7-morpholino-1,6-naphthyridin-3-yl]methanesulfonamide] the figure was 6.00 to 7.00; with `CN1CCC(Oc2cnc(N[C@H]3CC[C@@H](Oc4nc(N5CCOCC5)cc5ncc(NS(C)(=O)=O)cc45)CC3)nc2)C1` (some centres unmarked) [LFA2025, N-[5-[4-[[5-(1-methylpyrrolidin-3-yl)oxypyrimidin-2-yl]amino]cyclohexoxy]-7-morpholino-1,6-naphthyridin-3-yl]methanesulfonamide], 6.00 to 7.00.
As for `CN1CCN(CCOc2ccnc(N[C@H]3CC[C@@H](Oc4nc(N5CCOCC5)cc5ncc(NS(C)(=O)=O)cc45)CC3)n2)CC1` [LFA2026, N-[5-[4-[[4-[2-(4-methylpiperazin-1-yl)ethoxy]pyrimidin-2-yl]amino]cyclohexoxy]-7-morpholino-1,6-naphthyridin-3-yl]methanesulfonamide], the pIC50 was 6.00 to 7.00.
Under `CS(=O)(=O)Nc1cnc2cc(N3CCOCC3)nc(O[C@H]3CC[C@@H](Nc4ncc(OCCN)cn4)CC3)c2c1` [LFA2027, N-[5-[4-[[5-(2-aminoethoxy)pyrimidin-2-yl]amino]cyclohexoxy]-7-morpholino-1,6-naphthyridin-3-yl]methanesulfonamide] stands over 7.00.
Turning to `CS(=O)(=O)Nc1cnc2cc(N3CCOCC3)nc(O[C@H]3CC[C@@H](Nc4ncc(OCCO)cn4)CC3)c2c1` [LFA2028, N-[5-[4-[[5-(2-hydroxyethoxy)pyrimidin-2-yl]amino]cyclohexoxy]-7-morpholino-1,6-naphthyridin-3-yl]methanesulfonamide], the pIC50 was over 7.00.
With `CS(=O)(=O)Nc1cnc2cc(N3CCOCC3)nc(O[C@H]3CC[C@@H](Nc4ncc(N5CCOCC5)cn4)CC3)c2c1` [LFA2029, N-[7-morpholino-5-[4-[(5-morpholinopyrimidin-2-yl)amino]cyclohexoxy]-1,6-naphthyridin-3-yl]methanesulfonamide] the figure was over 7.00.

For the origin of these results see patent publication US20240239790A1, “7-Morpholino-1,6-Naphthyridin-5-yl Derivatives and Pharmaceutical Compositions Thereof Useful as DNA-PK Inhibitor” (adMare Therapeutics Society, priority 2021, published 2024).
